For one data set, the system named is glutathione (GSH). In words: In vitro cell experiments, intracellular glutathione concentration. Format: cell-based.
Data set [1] has as its system MPTP-induced dopaminergic neuron-damaged PD mouse models. In words: MPTP-induced dopaminergic neuron damage PD mouse model, dose response protection and safety. Format: in vivo, mice. As to conditions: for lowest dosage for protective effect: dopamine neuron protection; for dosage where toxic effects began to appear: mouse, in vivo, ip. Here is the method:
Using MSF and ESF to conduct therapeutic studies with widely accepted MPTP-induced dopaminergic neuron-damaged PD mouse models. […] For the experimental groups of MSF and ESF, 10 dose groups were used for each drug. 10 mice in each group. Both the experimental group and the control group used intraperitoneal administration. The control group was treated with DMF. Statistically significant protective effects of dopamine neurons were found, and the dose-effect relationship was observed.

For data set [2], the system named is Nrf2 knockout mice with MPTP-induced dopaminergic neuronal damage. In words: MPTP experiments on transgenic mice with the Nrf2 gene knocked out. Format: in vivo. The source says: Inferring from the inclusion of salicyl in their molecule structure, this new target may be associated with anti-neuroinflammation.
The test system of data set [3] is MS patients. The settings on record: DEFINE; cited from earlier work.
For data set [4], the system named is MS patients. As to conditions: CONFIRM; cited from earlier work.
Data set [5] deals with MPTP-induced mouse PD models. The settings on record: cited from earlier work.
The nature of data set [6]: HPLC level of MSF and ESF in peripheral blood, liver and brain tissue after intraperitoneal injection. Format: in vivo. The settings on record: after intraperitoneal injection in mice. The source says:
Unlike the positive control drug DMF which worked differently.

In data set [7] the test system is models of chronic MPTP-induced dopamine neuron damage in mice. In words: Chronic MPTP-induced dopamine neuron damage in mice. Format: in vivo. The settings on record: 200 mg/kg/d, chronic MPTP model.
The test system of the next data set is glutathione. As to conditions: unlike DMF; cited from earlier work.
Data set [8] is described as follows: Preliminary experiments on pharmacological activities. As to conditions: compared with methyl and ethyl salicyl fumarate. The text has this:
7. The applicants used the same fore-mentioned synthesis routes to perform esterification of salicylic acid and fumarate esters. They obtained propyl salicyl fumarate (compound structural formula shown as C), isopropyl salicyl fumarate (compound structural formula shown as D), and butyl salicyl fumarate (compound structural formula shown as E) respectively.

The mark [9] stands for this setting: intraperitoneal administration, MPTP mice.

Structures can show the parent of a compound that is named as a salt.

The text below walks through data of patent US11866401B2, “Salicyl fumarate derivative and its application in the treatment of Parkinson's disease and other neurodegenerative diseases” (CHONGQING NEUROPARK BIOSCIENCE CO., LTD., priority 2017, dated 2024).

Turning to `COC(=O)/C=C/C(=O)OC` [DMF, dimethyl fumarate, reference compound], the “effect on glutathione concentration in the cell” value (“effect … in the cell” for short) in the data set on glutathione (GSH) was “had the effect of depleting glutathione”. Also, in data set [1] (setting [9]), the “dosage where DMF showed toxic effect” value is > 200 mg and the “lowest dosage for protective effect” value is 50 mg/kg/day. For the same molecule, the “dopaminergic neuron protective effect” value in data set [2] is “lost the dopaminergic neuron protective effect”. In the data set on MS patients [3], the “reduction in occurrences of disability” value is 38% and the “reduction in occurrences of recurrence” value is listed as 49%. In addition, in the data set on MS patients [4], the reduction in recurrence is reported as 34%. In data set [5], the “protective effects against the neural toxicity of MPTP” value is on record as “exhibit protective effects against the neural toxicity of MPTP”.

Turning to `CCOC(=O)/C=C/C(=O)OCc1ccccc1O` [ESF, ethyl salicyl fumarate], the “effect … in the cell” value with glutathione (GSH) was “no effect on the concentration of glutathione in the cell”. In addition, in data set [6], the “entry into the brain through the blood-brain barrier” value is “can enter the brain through the blood-brain barrier” and the “molecular structure in the brain” value was “remains unchanged in the brain”. For the same molecule, in [1] (setting [9]), the “protective effects of dopamine neurons compared to DMF” value was “more significant protective effects” and the “lowest dosage for protective effect” value amounted to 10 mg/kg/day. Also, the “dosage where toxic effects began to appear” value in [1] was > 500 mg/kg/day. Moreover, the dopamine neuron protection entry in data set [7] was “significant dopamine neuron protection”. The “dopaminergic neuron protective effect” value in data set [2] was “still show significant protective effects”.

As for `COC(=O)/C=C/C(=O)O` [MMF, monomethyl fumarate], the “glutathione consumption, inhibition of mitochondrial and glycolysis functions” value in the data set on glutathione is “does not consume glutathione and inhibit mitochondrial and glycolysis functions”.

With `COC(=O)/C=C/C(=O)OCc1ccccc1O` [MSF, methyl salicyl fumarate], the “effect … in the cell” value in the data set with glutathione (GSH) is “no effect on the concentration of glutathione in the cell”. For the same molecule, in [6], the “entry into the brain through the blood-brain barrier” value is reported as “can enter the brain through the blood-brain barrier” and the “molecular structure in the brain” value is recorded as “remains unchanged in the brain”. In [1] (setting [9]), the “protective effects of dopamine neurons compared to DMF” value was “more significant protective effects” and the “lowest dosage for protective effect” value is 10 mg/kg/day. In addition, in data set [1], the “dosage where toxic effects began to appear” value is > 500 mg/kg/day. For the same molecule, in [7], the dopamine neuron protection entry is given as “significant dopamine neuron protection”. Further, the “dopaminergic neuron protective effect” value in data set [2] was “still show significant protective effects”.

Regarding `CCCCOC(=O)/C=C/C(=O)Oc1ccccc1C(=O)O` [butyl salicyl fumarate], the pharmacological activities result in data set [8] was “lower than those of methyl salicyl fumarate and ethyl salicyl fumarate”.

Turning to `CC(C)OC(=O)/C=C/C(=O)Oc1ccccc1C(=O)O` [isopropyl salicyl fumarate], the pharmacological activities entry in [8] is “lower than those of methyl salicyl fumarate and ethyl salicyl fumarate”.

As for `CCCOC(=O)/C=C/C(=O)Oc1ccccc1C(=O)O` [propyl salicyl fumarate], the pharmacological activities result in data set [8] is “lower than those of methyl salicyl fumarate and ethyl salicyl fumarate”.
